Reference: PubChem BioAssay (NCI)
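At the GI50, growth is halved. TGI marks complete inhibition of growth.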

What was measured:
Experiment in all cases: NCI tumour cell line growth inhibition, 384-well format
NCI-H226 lung = test system: NCI-H226 lung
NCI-H23 lung = test system: NCI-H23 lung
NCI-H322M lung = test system: NCI-H322M lung
NCI-H460 NSCLC = test system: NCI-H460 NSCLC
NCI-H522 lung = test system: NCI-H522 lung
NCI/ADR-RES ovarian = test system: NCI/ADR-RES ovarian
OVCAR-3 ovarian = test system: OVCAR-3 ovarian
OVCAR-4 ovarian = test system: OVCAR-4 ovarian
OVCAR-5 ovarian = test system: OVCAR-5 ovarian
OVCAR-8 ovarian = test system: OVCAR-8 ovarian
PC-3 prostate = test system: PC-3 prostate
RPMI-8226 leukemia = test system: RPMI-8226 leukemia
RXF 393 renal = test system: RXF 393 renal
SF-268 CNS = test system: SF-268 CNS
SF-295 CNS = test system: SF-295 CNS
SF-539 CNS = test system: SF-539 CNS
SK-MEL-28 melanoma = test system: SK-MEL-28 melanoma
SK-MEL-5 melanoma = test system: SK-MEL-5 melanoma
SK-OV-3 ovarian = test system: SK-OV-3 ovarian
SN12C renal = test system: SN12C renal
SNB-19 CNS = test system: SNB-19 CNS
SNB-75 CNS = test system: SNB-75 CNS
SR leukemia = test system: SR leukemia
SW-620 colon = test system: SW-620 colon
T-47D breast = test system: T-47D breast
TK-10 renal = test system: TK-10 renal
UACC-257 melanoma = test system: UACC-257 melanoma
UACC-62 melanoma = test system: UACC-62 melanoma
UO-31 renal = test system: UO-31 renal

In the case of CCC(CC)n1cnc2c(-c3cnc(N)cn3)nc(N3CC4CCC(C3)O4)nc21, the TGI (NCI-H226 lung) is reported as 6.52 µM, the GI50 (NCI-H23 lung) is reported as 1.27 µM and the TGI (NCI-H23 lung) is reported as greater than 100 µM. For the same compound, the GI50 (NCI-H322M lung) was 0.394 µM, the TGI (NCI-H322M lung) was greater than 100 µM and the GI50 (NCI-H460 NSCLC) was 0.187 µM. It also gave a TGI (NCI-H460 NSCLC) greater than 100 µM, a GI50 (NCI-H522 lung) of 0.314 µM and a TGI (NCI-H522 lung) greater than 100 µM. For the same compound, the GI50 (NCI/ADR-RES ovarian) was 2.77 µM, the TGI (NCI/ADR-RES ovarian) was greater than 100 µM and the GI50 (OVCAR-3 ovarian) was 0.901 µM. It also gave a TGI (OVCAR-3 ovarian) greater than 100 µM, a GI50 (OVCAR-4 ovarian) of 0.635 µM and a TGI (OVCAR-4 ovarian) of 3.79 µM. The GI50 (OVCAR-5 ovarian) was 0.685 µM, the TGI (OVCAR-5 ovarian) was greater than 100 µM and the GI50 (OVCAR-8 ovarian) was 1.75 µM. The TGI (OVCAR-8 ovarian) was greater than 100 µM, the GI50 (PC-3 prostate) was 0.348 µM and the TGI (PC-3 prostate) was greater than 100 µM. The GI50 (RPMI-8226 leukemia) was 0.029 µM, the TGI (RPMI-8226 leukemia) was 0.151 µM and the GI50 (RXF 393 renal) was 1.29 µM. The TGI (RXF 393 renal) was greater than 100 µM, the GI50 (SF-268 CNS) was 2.57 µM and the TGI (SF-268 CNS) was greater than 100 µM. For the same compound, the GI50 (SF-295 CNS) was 0.267 µM, the TGI (SF-295 CNS) was 2.28 µM and the GI50 (SF-539 CNS) was 1.63 µM. The TGI (SF-539 CNS) was greater than 100 µM, the GI50 (SK-MEL-28 melanoma) was 0.309 µM and the TGI (SK-MEL-28 melanoma) was 5.99 µM. The GI50 (SK-MEL-5 melanoma) was 0.288 µM, the TGI (SK-MEL-5 melanoma) was 1.61 µM and the GI50 (SK-OV-3 ovarian) was 0.4 µM. For the same compound, the TGI (SK-OV-3 ovarian) was 5.19 µM, the GI50 (SN12C renal) was 0.433 µM and the TGI (SN12C renal) was greater than 100 µM. The GI50 (SNB-19 CNS) was 8.09 µM, the TGI (SNB-19 CNS) was greater than 100 µM and the GI50 (SNB-75 CNS) was 0.312 µM. The TGI (SNB-75 CNS) was 7.84 µM, the GI50 (SR leukemia) was 0.189 µM and the TGI (SR leukemia) was 1.17 µM. The GI50 (SW-620 colon) was 3.46 µM, the TGI (SW-620 colon) was greater than 100 µM and the GI50 (T-47D breast) was 0.0669 µM. For the same compound, the TGI (T-47D breast) was 0.431 µM, the GI50 (TK-10 renal) was 1.39 µM and the TGI (TK-10 renal) was greater than 100 µM. The GI50 (UACC-257 melanoma) was 2.37 µM, the TGI (UACC-257 melanoma) was greater than 100 µM and the GI50 (UACC-62 melanoma) was 0.416 µM. The TGI (UACC-62 melanoma) was 4.61 µM, the GI50 (UO-31 renal) was 3.03 µM and the TGI (UO-31 renal) was greater than 100 µM.
